{
  "source": "patent US20070270413A1",
  "about": "“Mirtazapine for the treatment of neuropathic pain” (N.V. Organon, priority 2006, published 2007)",
  "key": {"[1]": {"test": "Side effects observed after s.c. dosing in the Chung neuropathic model", "protocol": "Following baseline measurements each animal was anaesthetised and the L5 spinal nerve tightly ligated. The animals were allowed to recover from the surgery for a period of at least five days. On the day of drug administration, the paw withdrawal thresholds were re-measured (0 min). […] Readings were then made at regular intervals after compound injection."}, "[2]": {"system": "mechanical allodynia induced by ligation of the L5 spinal nerve", "test": "Chung neuropathic model: mechanical allodynia, paw withdrawal threshold to von Frey filaments", "format": "in vivo, rat", "from_the_text": "The Chung Neuropathic Model is an animal model of neuropathic pain. Animals with tight ligation of the L5 spinal nerve develop hyperalgesia and allodynia that can be measured using standard behavioural paradigms. Chung surgery: animals were anaesthetized with isoflurane administered in oxygen. Under sterile conditions, a longitudinal incision (about 5 mm lateral from the midline) was made at the lower lumbar-sacral level, exposing the paraspinal muscles on the left. The paraspinal muscles were then isolated and removed from the L4 spinous process to the sacrum using small blunt scissors. This opened up the space ventrolateral to the articular processes, dorsal to the L6 transverse process, and medial to the ileum. Small roungers were used to remove the L6 transverse process as completely as possible. The L5 spinal nerve was then isolated and tightly ligated. Upon completion of the operation, haemostasis was confirmed and the wound closed in layers using silk sutures and metal clips. Anaesthesia was then discontinued. Animals were kept in a cage with warm bedding until they had completely recovered from anaesthesia. The rats' withdrawal threshold to a mechanical stimulus (calibrated von Frey filaments) was measured (baseline reading). Rats were placed on an elevated (˜40 cm) mesh floor in Perspex boxes and filaments of increasing force (2.6-167 mN) were applied to the plantar surface of the paw using an up and down method (Chaplan et al., 1994). The paw was touched with one of a series of 8 von Frey hairs with logarithmically incremental stiffness. The von Frey hair was presented perpendicular to the plantar surface with sufficient force to cause buckling against the paw, and held for approximately 1-3 seconds. A positive response was noted if the paw was sharply withdrawn. A cut-off of 15 g was selected as the upper limit for testing, since stiffer hairs tend to raise the entire limb rather than buckling, substantially changing the nature of the stimulus. […] Data were expressed as mean±s.e.m. and compared between groups using the Kruskal-Wallis one-way analysis of variance, a non-parametric statistical test. Each of the treatment groups were then compared against the vehicle group, using the non-parametric Dunn's test. The time of maximum effect (Tmax) was calculated."}, "[3]": {"system": "mechanical allodynia induced by ligation of the L5 spinal nerve", "test": "Chung neuropathic model: mechanical allodynia, paw withdrawal threshold to von Frey filaments", "format": "in vivo, rat", "conditions": "10 and 30 μmol/kg, 40 min after administration, P<0.05 vs vehicle (Mann Whitney)"}},
  "data": [
    {"molecule": "CN1CCN2c3ncccc3Cc3ccccc3[C@H]2C1", "note": "[S(+)-mirtazapine]", "values": [
      {"measurement": "Injection site finding", "setting": "[1]; 120 μmol/kg s.c.", "value": "necrosis at site of injection"},
      {"measurement": "Reaction on injection (s.c.)", "setting": "[1]; 120 μmol/kg s.c.", "value": "vocalisation/struggle on injection"},
      {"measurement": "Behaviour when returned to holding cages after testing", "setting": "[1]; 60 and 120 μmol/kg group", "value": "hyperactive/excitable behaviour"},
      {"measurement": "Tmax (time of maximum effect)", "setting": "[2]; 0.3 μmol/kg s.c.", "value": 1, "unit": "h"},
      {"measurement": "Tmax (time of maximum effect)", "setting": "[2]; 3 μmol/kg s.c.", "value": 1, "unit": "h"},
      {"measurement": "Tmax (time of maximum effect)", "setting": "[2]; 30 μmol/kg s.c., Table 1", "value": 1, "unit": "h"},
      {"measurement": "Tmax (time of maximum effect)", "setting": "[2]; 60 μmol/kg s.c.", "value": 1, "unit": "h"},
      {"measurement": "Reversal of mechanical allodynia", "setting": "[2]; 120 μmol/kg s.c.", "value": "53 % of the baseline"},
      {"measurement": "Tmax (time of maximum effect)", "setting": "[2]; 120 μmol/kg s.c.", "value": 1, "unit": "h"},
      {"measurement": "Anti-allodynic activity", "setting": "[2]; 60 and 120 μmol/kg s.c.", "value": "Anti-allodynic activity"},
      {"measurement": "Effect on mechanical allodynia", "setting": "[2]; subcutaneous administration, maleate salt", "value": "significantly attenuated"}
    ]},
    {"molecule": "R-mirtazapine [reference compound]", "values": [
      {"measurement": "Tmax (time of maximum effect)", "setting": "[2]; 10 μmol/kg s.c., Table 2", "value": 0.5, "unit": "h"},
      {"measurement": "Tmax (time of maximum effect)", "setting": "[2]; 30 μmol/kg s.c., Table 2", "value": 0.5, "unit": "h"},
      {"measurement": "Tmax (time of maximum effect)", "setting": "[2]; 100 μmol/kg s.c., Table 2", "value": 0.5, "unit": "h"},
      {"measurement": "Effect on mechanical allodynia", "setting": "[2]; 10-100 μmol/kg s.c., free base", "value": "no effect"},
      {"measurement": "Anti-allodynic activity", "setting": "[2]; doses up to 100 μmol/kg s.c.", "value": "no effect"}
    ]},
    {"molecule": "CN1CCN2c3ncccc3Cc3ccccc3C2C1", "note": "(racemic) [Racemic mirtazapine, mirtazapine]", "values": [
      {"measurement": "Withdrawal threshold", "setting": "[3]", "value": "up to 4 g"},
      {"measurement": "Effect on withdrawal threshold", "setting": "[2]; 10 and 30 μmol/kg, 40 min after administration, not dose-dependent", "value": "small but significant effect"}
    ]}
  ]
}
